Data published in the kinase profiling compilation of Christmann-Franck et al. (2016).

Columns and labels:
Assay in all cases: split-luciferase competition binding
[1] = target: RPS6KA1 KD1 (human) (UniProt Q15418); conditions: compound 10.0 µM
[2] = target: AKT1 (human) (UniProt P31749); conditions: compound 10.0 µM
[3] = target: PRKCI (human) (UniProt P41743); conditions: compound 10.0 µM
[4] = target: AURKA (human) (UniProt O14965); conditions: compound 10.0 µM
[5] = target: RPS6KA5 KD1 (human) (UniProt O75582); conditions: compound 10.0 µM
[6] = target: PKN1 (human) (UniProt Q16512); conditions: compound 10.0 µM
PKN1 (human), sequence (Q16512 whole entry, looked up): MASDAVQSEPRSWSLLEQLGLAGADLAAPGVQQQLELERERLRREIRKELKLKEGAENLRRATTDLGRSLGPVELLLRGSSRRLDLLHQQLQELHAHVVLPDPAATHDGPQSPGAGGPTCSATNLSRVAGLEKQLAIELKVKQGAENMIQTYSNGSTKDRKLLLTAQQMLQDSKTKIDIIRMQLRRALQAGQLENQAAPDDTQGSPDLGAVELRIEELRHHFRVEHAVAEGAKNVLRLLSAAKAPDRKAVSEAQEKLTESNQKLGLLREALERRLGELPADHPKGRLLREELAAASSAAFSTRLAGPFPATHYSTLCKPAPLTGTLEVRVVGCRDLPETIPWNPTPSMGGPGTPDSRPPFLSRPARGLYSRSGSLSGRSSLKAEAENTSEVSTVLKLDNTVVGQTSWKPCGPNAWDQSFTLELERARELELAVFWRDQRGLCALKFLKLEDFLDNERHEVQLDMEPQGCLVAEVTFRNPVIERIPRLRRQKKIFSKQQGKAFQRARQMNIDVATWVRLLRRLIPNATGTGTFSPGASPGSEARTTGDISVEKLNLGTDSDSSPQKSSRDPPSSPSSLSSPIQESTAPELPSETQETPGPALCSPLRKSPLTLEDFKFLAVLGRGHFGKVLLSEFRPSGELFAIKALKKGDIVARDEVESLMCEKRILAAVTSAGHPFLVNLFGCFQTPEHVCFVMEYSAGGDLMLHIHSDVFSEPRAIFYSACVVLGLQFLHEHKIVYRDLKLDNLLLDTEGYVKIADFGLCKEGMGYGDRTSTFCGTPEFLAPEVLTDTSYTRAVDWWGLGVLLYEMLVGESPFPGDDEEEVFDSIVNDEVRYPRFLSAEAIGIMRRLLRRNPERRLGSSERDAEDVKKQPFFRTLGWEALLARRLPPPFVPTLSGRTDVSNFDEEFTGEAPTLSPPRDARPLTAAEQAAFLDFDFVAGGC

[7] = target: SGK3 (human) (UniProt Q96BR1); conditions: compound 10.0 µM
[8] = target: PRKCG (human) (UniProt P05129); conditions: compound 10.0 µM
[9] = target: SGK2 (human) (UniProt Q9HBY8); conditions: compound 10.0 µM
SGK2 (human), sequence (Q9HBY8 whole entry, looked up): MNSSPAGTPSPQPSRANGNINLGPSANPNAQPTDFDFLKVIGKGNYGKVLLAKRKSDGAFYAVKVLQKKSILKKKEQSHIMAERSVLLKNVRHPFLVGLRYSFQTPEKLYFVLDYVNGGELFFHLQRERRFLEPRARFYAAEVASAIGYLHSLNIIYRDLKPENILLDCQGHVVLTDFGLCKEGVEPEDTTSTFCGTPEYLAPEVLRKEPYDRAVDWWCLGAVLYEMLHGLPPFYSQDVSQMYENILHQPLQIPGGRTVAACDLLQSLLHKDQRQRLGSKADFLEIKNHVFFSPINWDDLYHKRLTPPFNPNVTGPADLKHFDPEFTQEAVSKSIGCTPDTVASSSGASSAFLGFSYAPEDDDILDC

[10] = target: STK32B (human) (UniProt Q9NY57); conditions: compound 10.0 µM
[11] = target: PRKCD (human) (UniProt Q05655); conditions: compound 10.0 µM
[12] = target: PRKX (human) (UniProt P51817); conditions: compound 10.0 µM
[13] = target: AURKC (human) (UniProt Q9UQB9); conditions: compound 10.0 µM
AURKC (human), sequence (Q9UQB9 whole entry, looked up): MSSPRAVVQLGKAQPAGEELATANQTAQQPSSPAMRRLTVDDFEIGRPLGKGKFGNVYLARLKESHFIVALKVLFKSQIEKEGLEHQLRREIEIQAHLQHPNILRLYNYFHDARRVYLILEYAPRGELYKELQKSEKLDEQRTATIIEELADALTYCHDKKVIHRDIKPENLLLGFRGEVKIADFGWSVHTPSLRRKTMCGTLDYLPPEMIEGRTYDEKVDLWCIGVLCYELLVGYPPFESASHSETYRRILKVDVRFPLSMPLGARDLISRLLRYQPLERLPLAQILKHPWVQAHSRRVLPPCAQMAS

[14] = target: AURKB (human) (UniProt Q96GD4); conditions: compound 10.0 µM
[15] = target: PRKCE (human) (UniProt Q02156); conditions: compound 10.0 µM
[16] = target: PRKACB (human) (UniProt P22694); conditions: compound 10.0 µM
[17] = target: RPS6KA2 KD1 (human) (UniProt Q15349); conditions: compound 10.0 µM
[18] = target: RPS6KA4 KD1 (human) (UniProt O75676); conditions: compound 10.0 µM
[19] = system: PRKACA (mouse); conditions: compound 10.0 µM; accession and sequence are those of the human protein
[20] = target: PRKCQ (human) (UniProt Q04759); conditions: compound 10.0 µM
[21] = target: AKT3 (human) (UniProt Q9Y243); conditions: compound 10.0 µM
[22] = target: PDPK1 (human) (UniProt O15530); conditions: compound 10.0 µM
PDPK1 (human), sequence (O15530 whole entry, looked up): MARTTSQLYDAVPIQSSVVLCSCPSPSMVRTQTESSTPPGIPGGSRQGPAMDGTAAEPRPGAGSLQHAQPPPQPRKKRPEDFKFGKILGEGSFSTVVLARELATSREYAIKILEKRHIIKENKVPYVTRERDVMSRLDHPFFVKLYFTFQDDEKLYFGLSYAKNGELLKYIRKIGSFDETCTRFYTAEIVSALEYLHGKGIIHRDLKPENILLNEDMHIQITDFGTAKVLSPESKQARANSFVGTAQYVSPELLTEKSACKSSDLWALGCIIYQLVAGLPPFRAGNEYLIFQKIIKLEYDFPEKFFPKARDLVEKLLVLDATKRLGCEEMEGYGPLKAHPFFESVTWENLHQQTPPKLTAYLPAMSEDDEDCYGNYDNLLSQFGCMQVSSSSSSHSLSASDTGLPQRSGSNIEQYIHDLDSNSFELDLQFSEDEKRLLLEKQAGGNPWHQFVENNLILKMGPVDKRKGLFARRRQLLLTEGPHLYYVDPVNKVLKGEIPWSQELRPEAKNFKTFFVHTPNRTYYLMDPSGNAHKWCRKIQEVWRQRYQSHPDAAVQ

[23] = target: PRKCH (human) (UniProt P24723); conditions: compound 10.0 µM
PRKCH (human), sequence (P24723 whole entry, looked up): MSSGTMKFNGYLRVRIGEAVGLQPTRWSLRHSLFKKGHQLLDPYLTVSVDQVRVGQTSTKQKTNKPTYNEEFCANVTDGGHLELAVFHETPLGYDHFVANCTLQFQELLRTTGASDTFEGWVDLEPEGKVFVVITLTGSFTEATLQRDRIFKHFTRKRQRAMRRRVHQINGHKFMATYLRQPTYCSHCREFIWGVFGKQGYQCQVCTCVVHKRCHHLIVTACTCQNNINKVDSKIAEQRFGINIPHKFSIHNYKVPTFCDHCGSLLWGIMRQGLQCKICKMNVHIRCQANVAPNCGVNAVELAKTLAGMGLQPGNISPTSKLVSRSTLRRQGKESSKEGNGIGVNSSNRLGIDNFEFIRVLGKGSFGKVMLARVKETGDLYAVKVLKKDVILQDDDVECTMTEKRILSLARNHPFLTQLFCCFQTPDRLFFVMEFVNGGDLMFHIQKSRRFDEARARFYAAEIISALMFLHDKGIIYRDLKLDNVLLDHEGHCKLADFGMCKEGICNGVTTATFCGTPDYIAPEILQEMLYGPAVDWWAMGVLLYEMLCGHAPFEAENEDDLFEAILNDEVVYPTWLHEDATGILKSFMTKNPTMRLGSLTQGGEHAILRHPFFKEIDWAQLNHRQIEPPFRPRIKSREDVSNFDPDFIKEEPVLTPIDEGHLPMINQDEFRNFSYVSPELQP

[24] = target: AKT2 (human) (UniProt P31751); conditions: compound 10.0 µM
[25] = target: RPS6KA3 KD1 (human) (UniProt P51812); conditions: compound 10.0 µM
[26] = target: DMPK (human) (UniProt Q09013); conditions: compound 10.0 µM
[27] = target: RPS6KA6 KD1 (human) (UniProt Q9UK32); conditions: compound 10.0 µM

RPS6KA1 KD1 (human), sequence (Q15418 whole entry, looked up): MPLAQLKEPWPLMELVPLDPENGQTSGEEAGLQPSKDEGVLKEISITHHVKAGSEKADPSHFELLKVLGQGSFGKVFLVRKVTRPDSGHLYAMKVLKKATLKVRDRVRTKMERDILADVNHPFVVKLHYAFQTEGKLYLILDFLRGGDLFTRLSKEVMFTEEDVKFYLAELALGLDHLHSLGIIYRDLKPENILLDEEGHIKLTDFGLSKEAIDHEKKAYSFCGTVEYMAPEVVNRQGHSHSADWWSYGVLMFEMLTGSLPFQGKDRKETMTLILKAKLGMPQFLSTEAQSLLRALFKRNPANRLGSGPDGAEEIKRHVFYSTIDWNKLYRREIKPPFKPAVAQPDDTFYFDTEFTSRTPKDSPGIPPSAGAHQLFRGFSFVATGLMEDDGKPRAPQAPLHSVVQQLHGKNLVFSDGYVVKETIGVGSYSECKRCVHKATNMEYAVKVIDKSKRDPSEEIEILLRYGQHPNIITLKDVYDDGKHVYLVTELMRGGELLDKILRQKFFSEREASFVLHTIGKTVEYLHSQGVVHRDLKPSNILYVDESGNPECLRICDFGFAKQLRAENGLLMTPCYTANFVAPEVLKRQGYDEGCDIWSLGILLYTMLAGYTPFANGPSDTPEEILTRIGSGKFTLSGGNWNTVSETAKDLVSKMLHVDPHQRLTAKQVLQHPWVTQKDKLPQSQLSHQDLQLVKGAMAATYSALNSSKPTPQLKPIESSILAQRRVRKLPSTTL
AURKA (human), sequence (O14965 whole entry, looked up): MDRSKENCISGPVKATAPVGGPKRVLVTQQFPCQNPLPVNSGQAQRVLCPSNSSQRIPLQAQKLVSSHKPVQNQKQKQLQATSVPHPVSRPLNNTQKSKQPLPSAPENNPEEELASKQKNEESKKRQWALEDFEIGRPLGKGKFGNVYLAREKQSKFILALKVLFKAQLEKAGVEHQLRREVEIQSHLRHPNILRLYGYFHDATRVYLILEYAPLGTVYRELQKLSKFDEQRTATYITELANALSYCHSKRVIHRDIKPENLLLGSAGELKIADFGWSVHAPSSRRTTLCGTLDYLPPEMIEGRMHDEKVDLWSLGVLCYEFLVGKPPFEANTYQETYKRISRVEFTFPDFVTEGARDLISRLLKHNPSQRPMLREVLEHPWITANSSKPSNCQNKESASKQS

Cc1ccccc1C(=O)c1ccc(Nc2ccc(Br)cc2N)cc1Cl
inhibition [1]: 0% | inhibition [2]: 0% | inhibition [3]: 0% | inhibition [4]: 0% | inhibition [5]: 0% | inhibition [6]: 0% | inhibition [7]: 0% | inhibition [8]: 0% | inhibition [9]: 0% | inhibition [10]: 0% | inhibition [11]: 0% | inhibition [12]: 0% | inhibition [13]: 0% | inhibition [14]: 0% | inhibition [15]: 12% | inhibition [16]: 0% | inhibition [17]: 0% | inhibition [18]: 0% | inhibition [19]: 4% | inhibition [20]: 0% | inhibition [21]: 0% | inhibition [22]: 0% | inhibition [23]: 0% | inhibition [24]: 0% | inhibition [25]: 0% | inhibition [26]: 0% | inhibition [27]: 0%
